In patent US20230285402A1, “Compositions and Methods of Modulating Short-Chain Dehydrogenase Activity” (BOARD OF REGENTS OF THE UNIVERSITY OF TEXAS SYSTEM, priority 2013, published 2023):

Columns and labels:
[1] = target: T1, recombinant 15-PGDH (Homo sapiens (Human), UniProt P15428); assay: Inhibition of enzymatic activity of recombinant 15-PGDH in vitro (NADH generation); assay type: biochemical
[2] = target: T1, recombinant 15-PGDH; assay: Melting temperature shift of recombinant 15-PGDH (SYPRO Orange); assay type: binding; conditions: Differential Scanning Fluorimetry; shifted from 50.5
[3] = system: 15-PGH-luciferase fusion protein reporter in the Vaco-9M (V9M) cell line; assay: 15-PGDH-luciferase fusion reporter induction in V9M cells; assay type: cell-based
Description: Some residual activity is seen for isomer B when added at 3.2 μM concentration. The small residual activity of isomer A may be due to possible 3% contamination with some residual isomer B.

[4] = system: PGE2 in colon, bone marrow, liver, lung; assay: PGE2 in mouse tissues after IP injection; assay type: in vivo; conditions: IP dose of 10 mg/kg body weight
Description: Shown is measurement by Elisa of PGE2 (ng PGE2/mg of tissue protein) from 4 mouse tissues: lung, liver, colon and bone marrow. […] Tissues were harvested for PGE2 assay at either 2 hour (2 h) or 3 hour (3 h) time points following drug injection.

[5] = system: mice; assay: Homing of CFSE labeled donor bone marrow cells in lethally irradiated mice; assay type: in vivo, mouse; conditions: 10 mg/kg body weight
Description: Drugs are administered following radiation, following the transplant, and again at 8 hours after the transplant.

[6] = Chemical stability in aqueous solutions; assay type: physicochemical; conditions: broad pH range
[7] = Stability with mouse liver extracts; assay type: in vitro ADME
[8] = Stability with rat liver extracts; assay type: in vitro ADME
[9] = Stability with human liver extracts; assay type: in vitro ADME
[10] = system: mice; assay: Immediate toxicity after IP injection into mice; assay type: in vivo; conditions: over 24 hours; 50 mg/kg body weight IP

T1 sequence (P15428 whole entry): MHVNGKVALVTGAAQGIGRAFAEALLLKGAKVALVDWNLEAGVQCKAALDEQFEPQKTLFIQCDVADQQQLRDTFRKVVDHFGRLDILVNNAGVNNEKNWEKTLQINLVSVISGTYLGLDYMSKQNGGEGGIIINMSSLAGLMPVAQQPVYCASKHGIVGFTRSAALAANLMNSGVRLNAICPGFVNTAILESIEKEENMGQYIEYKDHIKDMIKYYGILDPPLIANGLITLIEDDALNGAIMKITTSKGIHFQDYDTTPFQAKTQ

Structure (SMILES) | IC50 lower than the parent racemic mixture ([1]; vs racemic SW033291) | melting temperature [2] | concentration for full activity [3] | concentration that inhibits recombinant 15-PGDH ([1]; enzyme concentration approximately 6 nM) | PGE2 levels in the colon, lung, liver and bone marrow [4] | homing of hematopoietic stem cells following bone marrow transplantation [5] | chemical stability in aqueous solutions [6] | stability when incubated with liver extracts [7] | stability when incubated with liver extracts [8] | stability when incubated with liver extracts [9] | immediate toxicity [10]
CCCC[S@](C)(O)c1sc2nc(-c3cccs3)cc(-c3ccccc3)c2c1N [SW033291 isomer B] | 40% | 68 °C | 0.1 µM |  |  |  |  |  |  |  | 
CCCC[S+]([O-])c1sc2nc(-c3nccs3)cc(-c3cnc(C)n3C)c2c1N (centres unmarked) [formula (XIII)] |  |  |  | 3 nM | elevates PGE2 levels | increases homing | chemically stable | chemically stable | chemically stable | chemically stable | no immediate toxicity
